{"source": "patent US8217085B2", "about": "(priority 2009, dated 2012)", "key": {"[1]": {"system": "ATCC strain 43300 Staphylococcus aureus", "experimental": "Additional antibiotic was added every 24 hours.\nUSP<51> Antimicrobial Effectiveness protocol was used as the template experimental paradigm. […] All concentrations were plated out to the 10^−7 dilutionsto ascertain cfu/ml. […] Additional antibiotic was added at the initial concentration every 24 hours.\nATCC strain 43300 Staphylococcus aureus was streaked out for isolations. An isolated colony was chosen, streaked again and incubated. Isolate was chosen and then diluted to a McFarland standard of one. The estimated value was then taken to inoculate tubes containing growth media and 12, 30 or 60 μg/ml oxacillin with approximately 10^5 cfu/ml. These tubes were incubated and plated for counting cfu.\nMaterial was calculated on a 10 ml volume. Sterile oxacillin was added to each experimental condition to a final concentration of 12, 30 or 60 μg/ml antibiotic.\nAll tubes were then inoculated with a dilution of the selected ATCC strain 43300 Staphylococcus aureus clone giving a final level of colony forming units of 3.3×10^5/ml (log=5.52). The tubes were incubated at 25° C. and mixed periodically. Antibiotic was re-inoculated every 24 hours at the initial concentration to maintain pressure on the organism. Plating was done at 24, 48, 72, and 120 hours. Each condition was plated by diluting 1 ml of growth material into 9 ml of MLB diluent broth. […] This mixture was serial diluted down to 10^−7 with 1 ml placed in triplicate in a sterile petri dish at each dilution point. 20 mls of TSA was added to each dilution, swirled and allowed to solidify. All dilutions were placed in a 35° C. incubator for 24 to 72 hours. Bacterial colonies on each plate were counted and the average taken then changed into log format. Any cfu/ml observed greater than 3.3×10^5 (log=5.5) were recorded as >3.3×10^5."}, "[2]": {"system": "ATCC strain 43300 Staphylococcus aureus", "format": "cell-based", "from_the_text": "(§1) No colonies were observed, indicating total kill.\nas §1"}, "[3]": {"system": "ATCC strain 43300 Staphylococcus aureus", "details": "24 hours", "experimental": "All concentrations were plated out to the 10^−7 dilutions to ascertain cfu/ml.\nATCC strain 43300 Staphylococcus aureus was streaked out for isolations and 25 clones were picked and diluted to a McFarland standard of one. The estimated value was then taken to inoculate tubes containing growth media and 12, 30 or 60 μg/ml methicillin or oxacillin with around 10^−7 cfu/tube.\nMaterial was calculated on a 10 ml volume. Sterile oxacillin or methicillin was added to each experimental condition to a final concentration of 12, 30 or 60 μg/ml antibiotic.\nAll tubes were then inoculated with a dilution of the selected ATCC strain 43300 Staphylococcus aureus clone giving a final level of colony forming units of 9.4×10^7/ml (log=7.97). The tubes were incubated at 25° C. and mixed periodically. […] Plating was done at 24 hours. Each condition was plated by diluting 1 ml of growth material into 9 ml of MLB diluent broth. This mixture was serial diluted down to 10^−7, and 1 ml placed in a sterile petri dish at each dilution point. 20 mls of TSA was added to each dilution, swirled and allowed to solidify. All dilutions were placed in a 35° C. incubator for 24 hours. Bacterial colonies on each plate were counted and colony counts changed into log format. A positive and negative control was ascertained."}, "[4]": {"system": "ATCC strain 43300 Staphylococcus aureus", "remark": "listed apart in the source", "experimental": "Additional antibiotic was added every 24 hours. The growth periods tested were 24 (FIG. 5), 48, 72, 96 and 120 hours.\nUSP<51> Antimicrobial Effectiveness protocol was used as the template experimental paradigm. […] All concentrations were plated out to the 10^−7 dilutions to ascertain cfu/ml. […] Additional antibiotic was added at the initial concentration every 24 hours.\nATCC strain 43300 Staphylococcus aureus was streaked out for isolations. An isolated colony was chosen, streaked again and incubated. Isolate was chosen and then diluted to a McFarland standard of one. The estimated value was then taken to inoculate tubes containing growth media and 12, 30 or 60 μg/ml methicillin with approximately 10^5 cfu/ml. These tubes were incubated and plated for counting cfu.\nMaterial was calculated on a 10 ml volume. Sterile methicillin was added to each experimental condition to a final concentration of 12, 30 or 60 μg/ml antibiotic. Lactose Broth positive controls both with and without the 12 μg/ml, 30 μg/ml, 60 μg/ml antibiotic were inoculated with MRSA. […] Tubes were set up in singlet, but plated in triplicate, as described below.\nAll tubes were then inoculated with a dilution of the selected ATCC strain 43300 Staphylococcus aureus clone giving a final level of colony forming units of 1.49×10^5/ml (log=5.17). The tubes were incubated at 25° C. and mixed periodically. Antibiotic was re-inoculated every 24 hours at the initial concentration to maintain pressure on the organism. Plating was done at 24, 48, 72, and 120 hours. Each condition was plated by diluting 1 ml of growth material into 9 ml of MLB diluent broth. […] This mixture was serial diluted down to 10^−7 with 1 ml placed in triplicate in a sterile petri dish at each dilution point. 20 mls of TSA was added to each dilution, swirled and allowed to solidify. All dilutions were placed in a 35° C. incubator for 24 to 72 hours. Bacterial colonies on each plate were counted and the average taken then changed into log format."}, "[5]": {"details": "12% MSM, 12 μg/ml oxacillin, 24 hours"}, "[6]": {"details": "12% MSM, 12 μg/ml oxacillin, 48 hours"}, "[7]": {"details": "12% MSM, 30 μg/ml oxacillin, 24 hours"}, "[8]": {"details": "12% MSM, 60 μg/ml oxacillin, 24 hours"}, "[9]": {"details": "13% MSM, 12 μg/ml oxacillin, 24 hours"}, "[10]": {"details": "13% MSM, 12 μg/ml oxacillin, 48 hours"}, "[11]": {"details": "13% MSM, 30 μg/ml oxacillin, 24 hours"}, "[12]": {"details": "13% MSM, 60 μg/ml oxacillin, 24 hours"}, "[13]": {"details": "14% MSM, 12 μg/ml oxacillin, 24 hours"}, "[14]": {"details": "14% MSM, 12 μg/ml oxacillin, 48 hours"}, "[15]": {"details": "14% MSM, 12 μg/ml oxacillin, 72 hours"}, "[16]": {"details": "14% MSM, 30 μg/ml oxacillin, 24 hours"}, "[17]": {"details": "14% MSM, 60 μg/ml oxacillin, 24 hours"}, "[18]": {"details": "15% MSM, 12 μg/ml oxacillin, 24 hours"}, "[19]": {"details": "15% MSM, 12 μg/ml oxacillin, 48 hours"}, "[20]": {"details": "15% MSM, 30 μg/ml oxacillin, 24 hours"}, "[21]": {"details": "15% MSM, 60 μg/ml oxacillin, 24 hours"}, "[22]": {"details": "16% MSM, 12 μg/ml oxacillin, 24 hours"}, "[23]": {"details": "16% MSM, 12 μg/ml oxacillin, 48 hours"}, "[24]": {"details": "16% MSM, 30 μg/ml oxacillin, 24 hours"}, "[25]": {"details": "16% MSM, 60 μg/ml oxacillin, 24 hours"}}, "note": "“And” between values parts separate entries of the source, which are not always exact repeats. Identical values can stand only once. Like-named read-outs stand apart in the source and are kept apart here."}
{"compound": "CS(C)(=O)=O", "note": "[MSM, methylsulfonylmethane]", "values": [{"measurement": "Average Log", "setting": "[1]; [5]", "value": 3.85, "unit": "Log"}, {"measurement": "survival", "setting": "[1]; [5]", "value": "7.0 × 10^3 cfu/ml and 7.3 × 10^3 cfu/ml"}, {"measurement": "Average Log", "setting": "[1]; [6]", "value": 2.8, "unit": "Log"}, {"measurement": "survival", "setting": "[1]; [6]", "value": "3.6 × 10^2 cfu/ml and 4.0 × 10^2 cfu/ml and 4.2 × 10^2 cfu/ml"}, {"measurement": "Average Log", "setting": "[1]; 12% MSM, 12 μg/ml oxacillin, 72 hours", "value": 3.1, "unit": "Log"}, {"measurement": "Average Log", "setting": "[1]; [7]", "value": 3.59, "unit": "Log"}, {"measurement": "survival", "setting": "[1]; [7]", "value": "3.9 × 10^3 cfu/ml"}, {"measurement": "Average Log", "setting": "[1]; 12% MSM, 30 μg/ml oxacillin, 48 hours", "value": 2.6, "unit": "Log"}, {"measurement": "Average Log", "setting": "[1]; 12% MSM, 30 μg/ml oxacillin, 72 hours", "value": 2.6, "unit": "Log"}, {"measurement": "Average Log", "setting": "[1]; [8]", "value": 2.86, "unit": "Log"}, {"measurement": "survival", "setting": "[1]; [8]", "value": "7.3 × 10^2 cfu/ml and 7.1 × 10^2 cfu/ml and 7.5 × 10^2 cfu/ml"}, {"measurement": "Average Log", "setting": "[1]; 12% MSM, 60 μg/ml oxacillin, 48 hours", "value": 2.0, "unit": "Log"}, {"measurement": "Average Log", "setting": "[1]; 12% MSM, 60 μg/ml oxacillin, 72 hours", "value": 2.4, "unit": "Log"}, {"measurement": "log reduction in the number of cfu/ml", "setting": "[1]; 12%-16% MSM, 12 μg/ml oxacillin, 72 hours", "value": 1, "unit": "log"}, {"measurement": "Average Log", "setting": "[1]; [9]", "value": 3.95, "unit": "Log"}, {"measurement": "survival", "setting": "[1]; [9]", "value": "9.0 × 10^3 cfu/ml and 8.7 × 10^3 cfu/ml and 9.2 × 10^3 cfu/ml"}, {"measurement": "Average Log", "setting": "[1]; [10]", "value": 2.8, "unit": "Log"}, {"measurement": "survival", "setting": "[1]; [10]", "value": "6.8 × 10^2 cfu/ml and 5.8 × 10^2 cfu/ml"}, {"measurement": "Average Log", "setting": "[1]; 13% MSM, 12 μg/ml oxacillin, 72 hours", "value": 2.7, "unit": "Log"}, {"measurement": "Average Log", "setting": "[1]; [11]", "value": 3.62, "unit": "Log"}, {"measurement": "survival", "setting": "[1]; [11]", "value": "4.4 × 10^3 cfu/ml and 4.1 × 10^3 cfu/ml and 4.2 × 10^3 cfu/ml"}, {"measurement": "Average Log", "setting": "[1]; 13% MSM, 30 μg/ml oxacillin, 48 hours", "value": 2.5, "unit": "Log"}, {"measurement": "Average Log", "setting": "[1]; 13% MSM, 30 μg/ml oxacillin, 72 hours", "value": 1.8, "unit": "Log"}, {"measurement": "Average Log", "setting": "[1]; [12]", "value": 2.80, "unit": "Log"}, {"measurement": "survival", "setting": "[1]; [12]", "value": "6.3 × 10^2 cfu/ml and 6.0 × 10^2 cfu/ml"}, {"measurement": "Average Log", "setting": "[1]; 13% MSM, 60 μg/ml oxacillin, 48 hours", "value": 1.7, "unit": "Log"}, {"measurement": "Average Log", "setting": "[1]; 13% MSM, 60 μg/ml oxacillin, 72 hours", "value": 1, "unit": "Log"}, {"measurement": "Average Log", "setting": "[1]; [13]", "value": 4.00, "unit": "Log"}, {"measurement": "survival", "setting": "[1]; [13]", "value": "1.00 × 10^4 cfu/ml and 1.02 × 10^4 cfu/ml and 1.01 × 10^4 cfu/ml"}, {"measurement": "Average Log", "setting": "[1]; [14]", "value": 1.0, "unit": "Log"}, {"measurement": "log reduction in the number of cfu/ml", "setting": "[1]; [14]", "value": 4.5, "unit": "log"}, {"measurement": "survival", "setting": "[1]; [14]", "value": "1.0 × 10^1 cfu/ml and 1.2 × 10^1 cfu/ml and 1.1 × 10^1 cfu/ml"}, {"measurement": "Average Log", "setting": "[1]; [15]", "value": 2.0, "unit": "Log"}, {"measurement": "log reduction in the number of cfu/ml", "setting": "[1]; [15]", "value": 4.5, "unit": "log"}, {"measurement": "Average Log", "setting": "[1]; [16]", "value": 3.78, "unit": "Log"}, {"measurement": "survival", "setting": "[1]; [16]", "value": "6.1 × 10^3 cfu/ml and 6.0 × 10^3 cfu/ml"}, {"measurement": "Average Log", "setting": "[1]; 14% MSM, 30 μg/ml oxacillin, 48 hours", "value": 2.5, "unit": "Log"}, {"measurement": "Average Log", "setting": "[1]; 14% MSM, 30 μg/ml oxacillin, 72 hours", "value": 2.2, "unit": "Log"}, {"measurement": "Average Log", "setting": "[1]; [17]", "value": 2.03, "unit": "Log"}, {"measurement": "log reduction in the number of cfu/ml", "setting": "[1]; [17]", "value": 3.5, "unit": "log"}, {"measurement": "survival", "setting": "[1]; [17]", "value": "1.8 × 10^2 cfu/ml and 1.7 × 10^2 cfu/ml"}, {"measurement": "Average Log", "setting": "[1]; 14% MSM, 60 μg/ml oxacillin, 48 hours", "value": 2.2, "unit": "Log"}, {"measurement": "Average Log", "setting": "[1]; 14% MSM, 60 μg/ml oxacillin, 72 hours", "value": 1.5, "unit": "Log"}, {"measurement": "Average Log", "setting": "[1]; [18]", "value": 4.11, "unit": "Log"}, {"measurement": "survival", "setting": "[1]; [18]", "value": "1.35 × 10^4 cfu/ml and 1.30 × 10^4 cfu/ml and 1.29 × 10^4 cfu/ml"}, {"measurement": "Average Log", "setting": "[1]; [19]", "value": 3.7, "unit": "Log"}, {"measurement": "survival", "setting": "[1]; [19]", "value": "5.0 × 10^3 cfu/ml and 4.5 × 10^3 cfu/ml and 4.6 × 10^3 cfu/ml"}, {"measurement": "Average Log", "setting": "[1]; 15% MSM, 12 μg/ml oxacillin, 72 hours", "value": 2.3, "unit": "Log"}, {"measurement": "Average Log", "setting": "[1]; [20]", "value": 3.94, "unit": "Log"}, {"measurement": "survival", "setting": "[1]; [20]", "value": "8.7 × 10^3 cfu/ml and 8.9 × 10^3 cfu/ml and 8.8 × 10^3 cfu/ml"}, {"measurement": "Average Log", "setting": "[1]; 15% MSM, 30 μg/ml oxacillin, 48 hours", "value": 2.8, "unit": "Log"}, {"measurement": "Average Log", "setting": "[1]; 15% MSM, 30 μg/ml oxacillin, 72 hours", "value": 2.4, "unit": "Log"}, {"measurement": "Average Log", "setting": "[1]; [21]", "value": 3.81, "unit": "Log"}, {"measurement": "survival", "setting": "[1]; [21]", "value": "6.6 × 10^3 cfu/ml and 6.2 × 10^3 cfu/ml and 6.4 × 10^3 cfu/ml"}, {"measurement": "Average Log", "setting": "[1]; 15% MSM, 60 μg/ml oxacillin, 48 hours", "value": 2.1, "unit": "Log"}, {"measurement": "Average Log", "setting": "[1]; [22]", "value": 3.88, "unit": "Log"}, {"measurement": "survival", "setting": "[1]; [22]", "value": "7.6 × 10^3 cfu/ml and 7.4 × 10^3 cfu/ml"}, {"measurement": "Average Log", "setting": "[1]; [23]", "value": 3.7, "unit": "Log"}, {"measurement": "survival", "setting": "[1]; [23]", "value": "4.2 × 10^3 cfu/ml and 5.0 × 10^3 cfu/ml and 4.3 × 10^3 cfu/ml"}, {"measurement": "Average Log", "setting": "[1]; 16% MSM, 12 μg/ml oxacillin, 72 hours", "value": 2.1, "unit": "Log"}, {"measurement": "Average Log", "setting": "[1]; [24]", "value": 3.91, "unit": "Log"}, {"measurement": "survival", "setting": "[1]; [24]", "value": "8.3 × 10^3 cfu/ml and 8.0 × 10^3 cfu/ml"}, {"measurement": "Average Log", "setting": "[1]; 16% MSM, 30 μg/ml oxacillin, 48 hours", "value": 2.6, "unit": "Log"}, {"measurement": "Average Log", "setting": "[1]; 16% MSM, 30 μg/ml oxacillin, 72 hours", "value": 1.9, "unit": "Log"}, {"measurement": "Average Log", "setting": "[1]; [25]", "value": 3.83, "unit": "Log"}, {"measurement": "survival", "setting": "[1]; [25]", "value": "6.9 × 10^3 cfu/ml"}, {"measurement": "Average Log", "setting": "[1]; 16% MSM, 60 μg/ml oxacillin, 48 hours", "value": 1.9, "unit": "Log"}, {"measurement": "Average Log", "setting": "[1]; 16% MSM, 60 μg/ml oxacillin, 72 hours", "value": 1.8, "unit": "Log"}, {"measurement": "recovery of MRSA after enrichment", "setting": "[2]; 11% MSM, 60 μg/ml oxacillin, 96 hours", "value": "total kill"}, {"measurement": "recovery of MRSA after enrichment", "setting": "[2]; 13% MSM, 60 μg/ml oxacillin, 120 hours", "value": "total kill"}, {"measurement": "recovery of MRSA after enrichment", "setting": "[2]; 14% MSM, 60 μg/ml oxacillin, 96 hours", "value": "total kill"}, {"measurement": "recovery of MRSA after enrichment", "setting": "[2]; 15% MSM, 30 μg/ml oxacillin, 120 hours", "value": "total kill"}, {"measurement": "recovery of MRSA after enrichment", "setting": "[2]; 15% MSM, 60 μg/ml oxacillin, 72 hours", "value": "total kill"}, {"measurement": "recovery of MRSA after enrichment", "setting": "[2]; 16% MSM, 60 μg/ml oxacillin, 120 hours", "value": "total kill"}, {"measurement": "average log reduction in cfu/ml", "setting": "[3]; 5% MSM with antibiotic (12, 30 or 60 μg/ml oxacillin or methicillin)", "value": 2.2, "unit": "log"}, {"measurement": "average log reduction in cfu/ml", "setting": "[3]; 16% MSM with antibiotic (barring methicillin 60 μg/ml outlier)", "value": 3.3, "unit": "log"}, {"measurement": "average log reduction in colony count", "setting": "[4]; 30 μg/ml methicillin, lower end of MSM concentrations, 24 hours", "value": 3, "unit": "log"}, {"measurement": "log reduction in colony count", "setting": "[4]; 5% MSM, 60 μg/ml methicillin, 48 hours", "value": 4.1, "unit": "log"}, {"measurement": "log reduction in colony count", "setting": "[4]; 6% MSM, 12 μg/ml methicillin, 48 hours", "value": 4.1, "unit": "log"}, {"measurement": "log reduction in colony count", "setting": "[4]; 6% MSM, 30 μg/ml methicillin, 24 hours", "value": 2.8, "unit": "log"}, {"measurement": "log reduction", "setting": "[4]; 16% MSM, 12 μg/ml methicillin, 24 hours", "value": 2.2, "unit": "log"}]}
